This is an account of results in patent US11072575B1, “Method of preparing a cinnamyl alcohol retinoic acid ester with antioxidant and antibacterial activities” (priority 2020, dated 2021).

Experiment [1] relates to Multi-resistant Staphylococcus aureus 18-596. Briefly: Paper diffusion drug sensitivity test, multi-resistant Staphylococcus aureus 18-596. As to conditions: for Zone of inhibition: drug sensitive paper 6.35 mm, test drugs 30 μg/tablet, 37° C. 24 h; for Antibacterial effect (in words): summary of Table 4.
For experiment [2], the system named is Multi-resistant Pseudomonas aeruginosa 18-202. Briefly: Paper diffusion drug sensitivity test, multi-resistant Pseudomonas aeruginosa 18-202. As to conditions: for Zone of inhibition: drug sensitive paper 6.35 mm, test drugs 30 μg/tablet, 37° C. 24 h; for Antibacterial effect (in words): summary of Table 4.
Experiment [3] is described as follows: DPPH radical scavenging activity assay. The note with it: for DPPH clearance rate: 30 min, 517 nm, n = 3. An excerpt:
In the DPPH molecule, due to the presence of multiple electron-withdrawing —NO2 and large π bonds of the benzene ring, nitrogen free radical is stabilized. Its methanol solution is purple and has a maximum absorption peak at 517 nm. After the addition of an antioxidant, DPPH captures an electron to be paired with the free electron, and the purple fades and turns into a yellow substance. The absorption at 517 nm disappears, and the degree of fading is quantitatively related to the number of electrons it captures. Based on this principle, a spectrophotometer is used to detect the change of the absorbance of the DPPH radical and the sample solution, and the ability of the sample to provide hydrogen atoms and scavenge free radicals can be measured. […] Vc (positive control), cinnamyl alcohol retinoic acid ester (sample), cinnamyl alcohol (control) and retinoic acid (control). The sample solution was subjected to gradient dilution with toluene, and three sets of controls were separately dissolved in a test tube with a certain amount of toluene to prepare the same concentration gradient as the sample. [table] […] Clearance calculation: Clearance Rate (%)=[1−(Ai−Aj)/Ao]*100%
For orientation: DPPH is a stable violet radical that fades when it is reduced.

For the compound `CC1=C(/C=C/C(C)=C/C=C/C(C)=C/C(=O)OC/C=C/c2ccccc2)C(C)(C)CCC1` [Cinnamyl alcohol retinoic acid ester, (2E,4E,6E,8E)-cinnamyl 3,7-dimethyl-9-(2,6,6-trimethylcyclohex-1-en-1-yl)nona-2,4,6,8-tetraenoate], the Zone of inhibition in experiment [1] is listed as 20 mm; in experiment [2], 21 mm. Besides, the “Antibacterial effect (in words)” value in experiment [1] and in experiment [2] was “strong resistance” throughout. Moreover, the DPPH clearance rate worked out at 13.16% in experiment [3] (1.76 ppm in toluene); 17.53% in experiment [3] (8.80 ppm in toluene); 31.95% in experiment [3] (21.12 ppm in toluene); 42.08% in experiment [3] (42.24 ppm in toluene); 68.62% in experiment [3] (79.20 ppm in toluene); 75.46% in experiment [3] (112.64 ppm in toluene). Moreover, the DPPH clearance rate in experiment [3] (281.60 ppm in toluene) worked out at 79.44%; in experiment [3] (492.80 ppm in toluene), 83.15%; in experiment [3] (792.00 ppm in toluene) it was 90.77%; in experiment [3] (915.20 ppm in toluene), 95.43%. The “Antioxidant activity (in words)” value in experiment [3] (summary) is “excellent antioxidant activity”.
As to `OCC=Cc1ccccc1` [Cinnamyl alcohol, cinnamyl alcohol], the values for the Zone of inhibition in experiment [1] and in experiment [2] were 14 mm and 6 mm, respectively. The “Antibacterial effect (in words)” value in experiment [1] and in experiment [2] was “little inhibitory effect” in each case. In addition, the DPPH clearance rate is 6.89% in experiment [3] (1.76 ppm in toluene); 7.95% in experiment [3] (8.80 ppm in toluene); 17.86% in experiment [3] (21.12 ppm in toluene); 25.71% in experiment [3] (42.24 ppm in toluene); 37.96% in experiment [3] (79.20 ppm in toluene); 44.56% in experiment [3] (112.64 ppm in toluene). Also, the DPPH clearance rate in experiment [3] (281.60 ppm in toluene) was 59.23%; in experiment [3] (492.80 ppm in toluene), 64.94%; in experiment [3] (792.00 ppm in toluene) it was 73.54%; in experiment [3] (915.20 ppm in toluene), 75.82%.
Take `CC1=C(/C=C/C(C)=C/C=C/C(C)=C/C(=O)O)C(C)(C)CCC1` [Retinoic acid, retinoic acid]: the Zone of inhibition in experiment [1] amounted to 8 mm; in experiment [2], 7 mm.
The like results for `CN[C@H](CC(C)C)C(=O)N[C@H]1C(=O)N[C@@H](CC(N)=O)C(=O)N[C@H]2C(=O)N[C@H]3C(=O)N[C@H](C(=O)N[C@H](C(=O)O)c4cc(O)cc(O)c4-c4cc3ccc4O)[C@H](O)c3ccc(c(Cl)c3)Oc3cc2cc(c3O[C@@H]2O[C@H](CO)[C@@H](O)[C@H](O)[C@H]2O[C@H]2C[C@](C)(N)[C@H](O)[C@H](C)O2)Oc2ccc(cc2Cl)[C@H]1O` [Vancomycin] were, in that order, 21 mm and 9 mm.
Take `O=C1O[C@H]([C@@H](O)CO)C(O)=C1O` [Vc]: the DPPH clearance rate in experiment [3] (1.76 ppm in toluene) is 23.16%; in experiment [3] (8.80 ppm in toluene), 33.47%; in experiment [3] (21.12 ppm in toluene), 79.63%; in experiment [3] (42.24 ppm in toluene), 89.55%; in experiment [3] (79.20 ppm in toluene), 97.42%; in experiment [3] (112.64 ppm in toluene) it was 97.53%. Further, the DPPH clearance rate in experiment [3] (281.60 ppm in toluene) came to 98.29%; in experiment [3] (492.80 ppm in toluene) it was 99.06%; in experiment [3] (792.00 ppm in toluene), 99.10%; in experiment [3] (915.20 ppm in toluene), 99.28%.
Gentamicin: the Zone of inhibition in experiment [1] turned out to be 10 mm; in experiment [2], 21 mm.
